The test relates to Human peripheral blood mononuclear cells (PBMC). Nature of the test: Cytokine Induction in Human Cells (PBMC). The test is classed as cell-based. Particulars: 21-24 hours culture, lowest concentration giving cytokine at least 2× negative control; for MEC to Induce Cytokine IFN-alpha: ELISA; for MEC to Induce Cytokine IFN-gamma / MEC to Induce Cytokine TNF-alpha: multiplex bead assay. As to the method: Whole blood was obtained from healthy human donors and collected by venipuncture into vacutainer tubes or syringes containing EDTA. Human peripheral blood mononuclear cells (PBMC) were purified from the whole blood by density gradient centrifugation. Histopaque 1077 (15 mL, Sigma, St. Louis, Mo.) was transferred to 6×50 mL sterile polypropylene conical tubes. The Histopaque was overlayed with 15-25 mL of blood diluted 1:2 in Hank's Balanced Salts Solution (HBSS) (Gibco, Life Technology, Grand Island, N.Y.). The tubes were then centrifuged at 1370 rpm for 30 minutes at 20° C., with no brake (400λg, GH 3.8A Rotor).
The interface (buffy coat) containing the PBMC was collected and placed in a new sterile 50 mL conical polypropylene centrifuge tube. The PBMC were mixed with an equal volume of HBSS (about 20 mL from the interface and about 20 mL of HBSS), and then centrifuged at 1090 rpm, 10 minutes, 20° C., with brake (270λg, GH 3.8A Rotor). After completing centrifugation, the cells were resuspended in 2 to 3 mL ACK Red blood cell lysis buffer (ammonium chloride potassium solution, Gibco, Life Technology) and incubated for 2-5 minutes at 20° C. Next, HBSS (40 mL) was added to the cells, and the sample was centrifuged at 270×g for 10 minutes at 20° C. The supernatant was decanted, and the cell pellet was resuspended in 5 mL AIM V Medium (Gibco, Life Technology). Cell aggregates and debris were removed by filtering the cell solution through a BD Falcon 70 micron nylon cell strainer (BD Biosciences, San Jose, Calif.).
The number of viable cells was determined by counting with a Miltenyi FACS instrument (Miltenyi Biotec Inc., San Diego, Calif.) or by using a hemacytometer. For determining cell viability with a hemacytometer, the cells were diluted 1/10 in 0.4% trypan blue and HBSS (specifically, 50 microliter of trypan blue+40 microliter of HBSS+10 microliter of cell solution were added to a microfuge tube and mixed). Ten microliters of the diluted cells were then applied to the hemacytometer, and the number of viable PBMC were determined by microscopy.
The PBMC sample was then resuspended in 96-well plates at a concentration of 8×10^5 cells/well in 0.1 mL of AIM-V medium. Each compound was solubilized in DMSO to create a 3 mM stock solution. The stock solution was then further diluted with AIM-V medium to prepare the serial dilutions. The diluted compound (100 microliters) was then transferred to the PBMCs to achieve final compound concentrations of 30, 10, 3.3, 1.1, 0.37, 0.12, 0.04, 0.01 micromolar. The plates also had both positive and negative controls. The negative control wells contained only AIM-V medium with no example compound. The positive control wells contained imiquimod serially diluted to concentrations of 30, 10, 3.3, 1.1, 0.37, 0.12, 0.04, 0.01 micromolar. The plates were then cultured at 37° C./5% CO2 for 21-24 hours. Cell-free supernatants were harvested by centrifuging the 96-well plates at 2100 rpm, 23° C. for 10 minutes. Approximately 160 microliter of the supernatant was then stored in a NUNC 96-well plate, covered with the compression cap and stored at −80° C. until the cytokine analysis was done.
IFN-alpha cytokine levels (picograms/mL) were measured by ELISA (human IFN-alpha, pan specific, Mabtech, Cincinnati, Ohio). IFN-gamma and TNF-alpha levels (picograms/mL) were measured by multiplex bead assay (magnetic beads, R & D Systems, Minneapolis, Minn.) according to the manufacturer's instructions.
Specifically, the minimum effective concentration of each compound (micromolar) was determined as the lowest concentration of the compound that induced a measured cytokine response at a level ([…]) that was at least 2× greater than that observed with the negative control wells.
(An ELISA detects its analyte on a solid surface through an enzyme-linked reagent.)

Structures are written as SMILES.

Take `CCCCC(CC)COc1ccc(C[C@@H](COCC)n2cnc3c(N)nc4ccccc4c32)cc1` (stereo partly drawn) [Example 5, 1-[(1 S)-1-(ethoxymethyl)-2-[4-(2-ethylhexoxy)phenyl]ethyl]imidazo[4,5-c]quinolin-4-amine]: the “MEC to Induce Cytokine IFN-alpha” value was 0.37 µM, the “MEC to Induce Cytokine IFN-gamma” value was 0.04 µM and the “MEC to Induce Cytokine TNF-alpha” value was not above 0.01 µM.
Taken in the same sequence, the figures for `CCOC[C@H](Cc1ccc(OCc2ccccc2)cc1)n1cnc2c(N)nc3ccccc3c21` [Example 6, 1-[(1S)-1-[(4-benzyloxyphenyl)methyl]-2-ethoxy-ethyl]imidazo[4,5-c]quinolin-4-amine] were not above 0.01 µM, not above 0.01 µM and not above 0.01 µM.
Taken in the same sequence, the figures for `CCCCCCOc1ccc(C[C@@H](COCC)n2cnc3c(N)nc4ccccc4c32)cc1` [Example 4, 1-[(1S)-1-(ethoxymethyl)-2-(4-hexoxyphenyl)ethyl]imidazo[4,5-c]quinolin-4-amine] were not above 0.01 µM, not above 0.01 µM and not above 0.01 µM.
On to `CCCCOc1ccc(C[C@@H](COCC)n2cnc3c(N)nc4ccccc4c32)cc1` [Example 3, 1-[(1S)-1-[(4-butoxyphenyl)methyl]-2-ethoxy-ethyl]imidazo[4,5-c]quinolin-4-amine], for which the “MEC to Induce Cytokine IFN-alpha” value is not above 0.01 µM, the “MEC to Induce Cytokine IFN-gamma” value was not above 0.01 µM and the “MEC to Induce Cytokine TNF-alpha” value was not above 0.01 µM.
With `CCCCCCCCOc1ccc(C[C@@H](COCC)n2cnc3c(N)nc4ccccc4c32)cc1` [Example 2, 1-[(1S)-1-(ethoxymethyl)-2-(4-octoxyphenyl)ethyl]imidazo[4,5-c]quinolin-4-amine], the “MEC to Induce Cytokine IFN-alpha” value was 0.12 µM, the “MEC to Induce Cytokine IFN-gamma” value was 0.37 µM and the “MEC to Induce Cytokine TNF-alpha” value was 0.37 µM.
Take `CCCCCCCCCCCCOc1ccc(C[C@@H](COCC)n2cnc3c(N)nc4ccccc4c32)cc1` [Example 1, 1-[(1 S)-1-[(4-dodecoxyphenyl)methyl]-2-ethoxy-ethyl]imidazo[4,5-c]quinolin-4-amine]: the “MEC to Induce Cytokine IFN-alpha” value stood at 3.3 µM, the “MEC to Induce Cytokine IFN-gamma” value was determined as 10 µM and the “MEC to Induce Cytokine TNF-alpha” value turned out to be 3.3 µM.
